Test results published in patent US20240075029A1, “LUMINOL FOR THE PROPHYLAXIS AND THE TREATMENT OF SEQUELAE OF A SARS-COV-2 INFECTION” (METRIOPHARM AG, priority 2020, published 2024).
Read-outs that look alike come from different tables or passages of the source.

How the values were obtained:
SARS-CoV-2 = details: Vero B4 cell culture; Schumann et al. (2020); cited from earlier work
[1] = tested on: murine peritoneal macrophages
Text: Female C57131/6 mice (6-8 weeks old) were purchased from Envigo (San Petro al Natisone, Udine, Italy) and housed under standard laboratory conditions (specific-pathogen free). Food and water were applied ad libitum. Animal handling and the study protocol were in accordance with international guidelines.
Four days after i.p. injection of 3% thioglycolate medium (w/v in distilled water; St Louis, MO USA), murine peritoneal macrophages (PM) were isolated according to the protocol of Zhang et al. (Curr. Protoc. Immunol. 2008, Chapter 14, Unit 14.1).
Briefly, cells were collected by injecting 10 ml of complete medium (DMEM/F12 Medium containing 10% fetal calf serum) into the peritoneal cavity using a 30 cc syringe attached to a 19-G needle, followed by slowly withdrawing the lavage fluid. Cells were washed twice in PBS (phosphate buffered saline) and counted.
One hour prior to LPS (lipopolysaccharide) stimulation (0.1 μg/ml; Escherichia coli 055:B5, St Louis, MO USA), cells (0.5×10^6 cells/well in 24-well plates with 1 ml total volume of medium) were pre-treated with scalar concentrations of 5-amino-2,3-dihydro-1,4-phthalazinedione sodium salt (ranging from 1 mM to 0.025 mM). Two independent experiments (each using cells pooled from three mice) were performed and secreted cytokine levels were determined 24, 48 and 72 h after LPS stimulation using ELISA technique.

[2] = tested on: cigarette smoke-induced 3-nitrotyrosine formation in the lung parenchyma; details: for 3-nitrotyrosine stained surface area, mean ± SEM: n=5
Text: The isolated, ventilated and perfused mouse lung system (ILU) is an established model for studying acute effects of various conditions and drugs on lung parenchyma and vasculature. It is mainly used for examining effects of hypoxia and for evaluating the efficacy of potential drugs on the hypoxic pulmonary vasoreaction (cf. Weissmann et al. (2006) Proc Natl Acad Sci USA 103: 19093-19098).
C57BL/6J mice (n=25, 5 per group; male/female, 3-6 months, 20-30 g; Charles River GmbH, Sulzfeld, Germany) were anesthetized with a ketamine (100 mg/kg body weight) and xylazine (20 mg/kg body weight) intraperitoneal injection (Ceva Tiergesundheit GmbH, Dusseldorf, Germany) containing heparin (50 I.E. heparin/g body weight; Ratiopharm GmbH, Ulm, Germany). […] Lungs were ventilated in an isolated chamber using normoxic gas (21% O2, 5% CO2, 74% N2; 150 breaths per minute at the PEEP (positive end-expiratory pressure) of 3 cm H2O) and perfused with a modified Krebs-Henseleit buffer (120.0 mM NaCl, 4.3 mM KCl, 1.1 mM KH2PO4, 2.4 mM CaCl2, 1.3 mM MgCl2, 13.14 mM glucose, 0.25 mM hydroxyethyl starch 200000/0.5, 25.0 mM NaHCO3 adjusted to a constant pH range of […] L-arginine; Serag-Wissner GmbH & Co. KG, Naila, Germany) at a temperature of 37° C. Lung weight, right and left ventricle pressure, as well as ventilatory pressure were monitored and recorded during the whole experimental procedure. After 5-10 minutes, when the lung was properly flushed and all the parameters were stable, 5-amino-2,3-dihydro-1,4-phthalazinedione sodium salt was applied by adding 150 μl of a stock solution to 15 ml of the circulating perfusion buffer. The substance was applied 10 minutes prior to the first cigarette smoke application. Cigarette smoke was applied via trachea while lung is perfused with the buffer containing 5-amino-2,3-dihydro-1,4-phthalazinedione sodium salt. […] 50 ml of the cigarette smoke were taken via a syringe and applied to the lung via trachea (FIG. 4A) in deep breaths (periodic inflation for 3-4 s) over a period of 5 min. The application was done manually while carefully monitoring the inspiratory pressure to avoid damage of the lung. The cigarette smoke application was repeated three times with a 1 hour break in-between.
Five treatment groups (n=5, respectively) were investigated: • A: room air exposure • B: cigarette smoke+diluent (buffer solution) • C: cigarette smoke+0.5 mM 5-amino-2,3-dihydro-1,4-phthalazinedione sodium salt • D: cigarette smoke+1 mM 5-amino-2,3-dihydro-1,4-phthalazinedione sodium salt • E: cigarette smoke+2 mM 5-amino-2,3-dihydro-1,4-phthalazinedione sodium salt
5-amino-2,3-dihydro-1,4-phthalazinedione sodium salt Form I was dissolved in water for injection (vehicle) at the required concentrations described above. Stock solutions were prepared in water for injection. Further 1:100 dilutions were made with modified Krebs-Henseleit buffer (see above). Stock solutions were stored at −70° C. in appropriate aliquots. The required amount of stock solution was thawed, and the corresponding working solution was prepared for immediate use.
One hour after the third cigarette smoke application lungs were removed from the system and fixed by inflating with formalin solution (via trachea) at the pressure of 12-15 cm H2O for two hours at room temperature. Afterwards the fixed lungs were kept in PBS (phosphate buffer saline, see below) at +4° C. until further dehydration and paraffin embedding. Paraffin blocks were cut 3 μm thick, dried overnight at 37° C. and stained for 3-nitrotyrosine (3-NT).

dyspnea = details: human, in vivo
joint pain = details: human, in vivo
chronic fatigue = details: human, in vivo
[3] = 1 mM, pre-treatment 1 h prior to LPS (0.1 μg/ml), LPS only = 100%, C57 mice PMs

SMILES: Nc1cccc2c(=O)[nH][nH]c(=O)c12.[Na] [5-amino-2,3-dihydro-1,4-phthalazinedione sodium salt]
- replication of SARS-CoV-2 (SARS-CoV-2): almost completely block
- reduction of IL-1-beta level [1, 3]: ~50%
- reduction of IL-6 level [1, 3]: ~80%
- reduction of IL-12 level [1, 3]: ~60%
- reduction of TNF-alpha level [1, 3]: about 40%
- cytokine reduction in PMs of a second mouse strain (Balb/c) ([1]; Balb/c PMs, six concentrations ranging from 1 mM to 0.25 mM, data not shown): clear dose-dependency
- cytokine secretion of unstimulated murine PMs ([1]; no LPS stimulation, data not shown): did not affect
- cigarette smoke induced 3-nitrotyrosine formation (immunohistochemistry, in words) ([2]; 0.5 mM in perfusion buffer): moderate effect
- cigarette smoke induced 3-nitrotyrosine formation (immunohistochemistry, in words) ([2]; 1 mM in perfusion buffer): almost completely abolished
- cigarette smoke induced 3-nitrotyrosine formation (immunohistochemistry, in words) ([2]; 2 mM in perfusion buffer): almost completely abolished
- 3-nitrotyrosine stained surface area, mean ± SEM ([2]; cigarette smoke + 0.5 mM in perfusion buffer): 2.24 ± 0.28 % area
- 3-nitrotyrosine stained surface area, mean ± SEM ([2]; cigarette smoke + 1 mM in perfusion buffer): 0.72 ± 0.26 % area
- 3-nitrotyrosine stained surface area, mean ± SEM ([2]; cigarette smoke + 2 mM in perfusion buffer): 0.37 ± 0.13 % area
- physical performance (dyspnea) (dyspnea): continuous improvement of the physical performance
- joint pain (joint pain): continuous waning of the joint pain
- symptoms of chronic fatigue (chronic fatigue): continuous waning of the symptoms
